Results published in ChEMBL document CHEMBL1201862, “PubChem BioAssay data set” (2004).
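These data come from cells grown in 96-well plates and exposed to compound for 48 hours at five concentrations. GI50: concentration for 50% inhibition of growth.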 Activity calls are given as the source filed them. Rule as the data show it: active = GI50 up to about 1.1 µM and inactive = higher.

Assays:
Test in all cases: growth of human tumour cells (NCI), 48 h
786-0 = tested on: 786-0
A498 = tested on: A498
A549 = tested on: A549
ACHN = tested on: ACHN
CAKI-1 = tested on: CAKI-1
CCRF-CEM = tested on: CCRF-CEM
COLO 205 = tested on: COLO 205
DU-145 = tested on: DU-145
EKVX = tested on: EKVX
HCC 2998 = tested on: HCC 2998
HCT-116 = tested on: HCT-116
HCT-15 = tested on: HCT-15
HL-60 = tested on: HL-60
HOP-62 = tested on: HOP-62
HT-29 = tested on: HT-29
Hs-578T = tested on: Hs-578T
IGROV-1 = tested on: IGROV-1
K562 = tested on: K562
KM12 = tested on: KM12
M14 = tested on: M14
MCF7 = tested on: MCF7
MDA-MB-231 = tested on: MDA-MB-231
MDA-MB-435 = tested on: MDA-MB-435
MDA-N = tested on: MDA-N
MOLT-4 = tested on: MOLT-4
Malme-3M = tested on: Malme-3M
NCI-H226 = tested on: NCI-H226
NCI-H23 = tested on: NCI-H23
NCI-H460 = tested on: NCI-H460
NCI/ADR-RES = tested on: NCI/ADR-RES
OVCAR-3 = tested on: OVCAR-3
OVCAR-4 = tested on: OVCAR-4
OVCAR-5 = tested on: OVCAR-5
OVCAR-8 = tested on: OVCAR-8
PC-3 = tested on: PC-3
RPMI-8226 = tested on: RPMI-8226
RXF 393 = tested on: RXF 393
SF-268 = tested on: SF-268
SF-295 = tested on: SF-295
SF-539 = tested on: SF-539
SK-MEL-28 = tested on: SK-MEL-28
SK-MEL-2 = tested on: SK-MEL-2
SK-MEL-5 = tested on: SK-MEL-5
SK-OV-3 = tested on: SK-OV-3
SN12C = tested on: SN12C
SNB-19 = tested on: SNB-19
SNB-75 = tested on: SNB-75
SR = tested on: SR
SW-620 = tested on: SW-620
T47D = tested on: T47D
TK-10 = tested on: TK-10
UACC-257 = tested on: UACC-257
UACC-62 = tested on: UACC-62
UO-31 = tested on: UO-31
HOP-92 = tested on: HOP-92
LOX IMVI = tested on: LOX IMVI
NCI-H522 = tested on: NCI-H522
U-251 = tested on: U-251

For `CC1CC(C)C(C#N)N(C)c2ccccc21` (stereo not given), the GI50 (786-0) was > 100 µM (inactive), the GI50 (A498) was > 100 µM (inactive) and the GI50 (A549) was > 100 µM (inactive). The GI50 (ACHN) was > 100 µM (inactive), the GI50 (CAKI-1) was > 100 µM (inactive) and the GI50 (CCRF-CEM) was 51.8 µM (inactive). For the same molecule, the GI50 (COLO 205) was > 100 µM (inactive), the GI50 (DU-145) was > 100 µM (inactive) and the GI50 (EKVX) was > 100 µM (inactive). The GI50 (HCC 2998) was > 100 µM (inactive), the GI50 (HCT-116) was 36.5 µM (inactive) and the GI50 (HCT-15) was over 100 µM. For the same molecule, the GI50 (HL-60) was 26.7 µM (inactive), the GI50 (HOP-62) was > 100 µM (inactive) and the GI50 (HT-29) was 78.3 µM (inactive). The GI50 (Hs-578T) was > 100 µM (inactive), the GI50 (IGROV-1) was > 100 µM (inactive) and the GI50 (K562) was 87.9 µM (inactive). For the same molecule, the GI50 (KM12) was > 100 µM (inactive), the GI50 (M14) was > 100 µM (inactive) and the GI50 (MCF7) was 81.3 µM (inactive). For the same molecule, the GI50 (MDA-MB-231) was > 100 µM (inactive), the GI50 (MDA-MB-435) was 69.2 µM (inactive) and the GI50 (MDA-N) was > 100 µM (inactive). The GI50 (MOLT-4) was 66.7 µM (inactive), the GI50 (Malme-3M) was > 100 µM (inactive) and the GI50 (NCI-H226) was > 100 µM (inactive). For the same molecule, the GI50 (NCI-H23) was > 100 µM (inactive), the GI50 (NCI-H460) was > 100 µM (inactive) and the GI50 (NCI/ADR-RES) was > 100 µM (inactive). The GI50 (OVCAR-3) was > 100 µM (inactive), the GI50 (OVCAR-4) was > 100 µM (inactive) and the GI50 (OVCAR-5) was > 100 µM (inactive). For the same molecule, the GI50 (OVCAR-8) was > 100 µM (inactive), the GI50 (PC-3) was > 100 µM (inactive) and the GI50 (RPMI-8226) was 37.2 µM (inactive). For the same molecule, the GI50 (RXF 393) was 6.12 µM (inactive), the GI50 (SF-268) was > 100 µM (inactive) and the GI50 (SF-295) was > 100 µM (inactive). The GI50 (SF-539) was > 100 µM (inactive), the GI50 (SK-MEL-28) was > 100 µM (inactive) and the GI50 (SK-MEL-2) was > 100 µM (inactive). The GI50 (SK-MEL-5) was 37.7 µM (inactive), the GI50 (SK-OV-3) was > 100 µM (inactive) and the GI50 (SN12C) was > 100 µM (inactive). The GI50 (SNB-19) was > 100 µM (inactive), the GI50 (SNB-75) was > 100 µM (inactive) and the GI50 (SR) was 25.6 µM (inactive). The GI50 (SW-620) was > 100 µM (inactive), the GI50 (T47D) was > 100 µM (inactive) and the GI50 (TK-10) was > 100 µM (inactive). For the same molecule, the GI50 (UACC-257) was > 100 µM (inactive), the GI50 (UACC-62) was 97.5 µM (inactive) and the GI50 (UO-31) was > 100 µM (inactive).
In the case of `COc1ccc(/C=C2\CN(C)C/C(=C\c3ccc(OC)cc3)C2=O)cc1`, the GI50 (786-0) is reported as 28.6 µM (inactive), the GI50 (A498) is reported as > 100 µM (inactive) and the GI50 (A549) is reported as > 100 µM (inactive). The GI50 (ACHN) was > 100 µM (inactive), the GI50 (CAKI-1) was > 100 µM (inactive) and the GI50 (CCRF-CEM) was > 100 µM (inactive). The GI50 (COLO 205) was > 100 µM (inactive), the GI50 (DU-145) was > 100 µM (inactive) and the GI50 (EKVX) was > 100 µM (inactive). The GI50 (HCC 2998) was > 100 µM (inactive), the GI50 (HCT-116) was > 100 µM (inactive) and the GI50 (HCT-15) was over 100 µM. The GI50 (HL-60) was > 100 µM (inactive), the GI50 (HOP-62) was > 100 µM (inactive) and the GI50 (HOP-92) was > 100 µM (inactive). The GI50 (HT-29) was > 100 µM (inactive), the GI50 (Hs-578T) was > 100 µM (inactive) and the GI50 (IGROV-1) was 52.2 µM (inactive). The GI50 (K562) was > 100 µM (inactive), the GI50 (KM12) was > 100 µM (inactive) and the GI50 (LOX IMVI) was > 100 µM (inactive). The GI50 (M14) was > 100 µM (inactive), the GI50 (MDA-MB-231) was > 100 µM (inactive) and the GI50 (MDA-MB-435) was > 100 µM (inactive). The GI50 (MDA-N) was > 100 µM (inactive), the GI50 (MOLT-4) was > 100 µM (inactive) and the GI50 (Malme-3M) was > 100 µM (inactive). For the same molecule, the GI50 (NCI-H226) was > 100 µM (inactive), the GI50 (NCI-H23) was > 100 µM (inactive) and the GI50 (NCI-H460) was > 100 µM (inactive). For the same molecule, the GI50 (NCI-H522) was > 100 µM (inactive), the GI50 (NCI/ADR-RES) was > 100 µM (inactive) and the GI50 (OVCAR-3) was > 100 µM (inactive). The GI50 (OVCAR-4) was > 100 µM (inactive), the GI50 (OVCAR-5) was > 100 µM (inactive) and the GI50 (PC-3) was > 100 µM (inactive). For the same molecule, the GI50 (RPMI-8226) was > 100 µM (inactive), the GI50 (RXF 393) was > 100 µM (inactive) and the GI50 (SF-268) was > 100 µM (inactive). For the same molecule, the GI50 (SF-295) was > 100 µM (inactive), the GI50 (SF-539) was > 100 µM (inactive) and the GI50 (SK-MEL-28) was > 100 µM (inactive). The GI50 (SK-MEL-2) was > 100 µM (inactive), the GI50 (SK-MEL-5) was 32.8 µM (inactive) and the GI50 (SN12C) was > 100 µM (inactive). The GI50 (SNB-19) was > 100 µM (inactive), the GI50 (SNB-75) was > 100 µM (inactive) and the GI50 (SR) was > 100 µM (inactive). The GI50 (SW-620) was > 100 µM (inactive), the GI50 (T47D) was > 100 µM (inactive) and the GI50 (TK-10) was > 100 µM (inactive). The GI50 (U-251) was > 100 µM (inactive), the GI50 (UACC-62) was > 100 µM (inactive) and the GI50 (UO-31) was > 100 µM (inactive).
For `O=C(/C(=C\C(=O)c1cccs1)c1ccsc1)c1ccc(Br)cc1`, the GI50 (786-0) was > 100 µM (inactive), the GI50 (A498) was > 100 µM (inactive) and the GI50 (A549) was > 100 µM (inactive). For the same molecule, the GI50 (ACHN) was > 100 µM (inactive), the GI50 (CAKI-1) was > 100 µM (inactive) and the GI50 (CCRF-CEM) was > 100 µM (inactive). The GI50 (COLO 205) was > 100 µM (inactive), the GI50 (DU-145) was > 100 µM (inactive) and the GI50 (EKVX) was 92.5 µM (inactive). The GI50 (HCC 2998) was > 100 µM (inactive), the GI50 (HCT-116) was > 100 µM (inactive) and the GI50 (HCT-15) was over 100 µM. The GI50 (HL-60) was > 100 µM (inactive), the GI50 (HOP-62) was > 100 µM (inactive) and the GI50 (HT-29) was 80 µM (inactive). The GI50 (Hs-578T) was > 100 µM (inactive), the GI50 (IGROV-1) was > 100 µM (inactive) and the GI50 (K562) was > 100 µM (inactive). The GI50 (KM12) was > 100 µM (inactive), the GI50 (M14) was > 100 µM (inactive) and the GI50 (MCF7) was > 100 µM (inactive). For the same molecule, the GI50 (MDA-MB-231) was > 100 µM (inactive), the GI50 (MDA-MB-435) was > 100 µM (inactive) and the GI50 (MDA-N) was > 100 µM (inactive). For the same molecule, the GI50 (MOLT-4) was > 100 µM (inactive), the GI50 (Malme-3M) was 60.1 µM (inactive) and the GI50 (NCI-H226) was > 100 µM (inactive). The GI50 (NCI-H23) was 80.2 µM (inactive), the GI50 (NCI-H460) was > 100 µM (inactive) and the GI50 (NCI/ADR-RES) was 88.5 µM (inactive). For the same molecule, the GI50 (OVCAR-4) was > 10 µM (inactive), the GI50 (OVCAR-8) was > 100 µM (inactive) and the GI50 (PC-3) was > 100 µM (inactive). For the same molecule, the GI50 (RPMI-8226) was 71.1 µM (inactive), the GI50 (SF-268) was > 100 µM (inactive) and the GI50 (SF-295) was > 100 µM (inactive). The GI50 (SF-539) was > 100 µM (inactive), the GI50 (SK-MEL-28) was > 100 µM (inactive) and the GI50 (SK-MEL-2) was > 100 µM (inactive). The GI50 (SK-MEL-5) was > 100 µM (inactive), the GI50 (SK-OV-3) was > 100 µM (inactive) and the GI50 (SN12C) was > 100 µM (inactive). The GI50 (SNB-19) was > 100 µM (inactive), the GI50 (SNB-75) was > 100 µM (inactive) and the GI50 (SR) was > 100 µM (inactive). For the same molecule, the GI50 (SW-620) was > 100 µM (inactive), the GI50 (T47D) was 18.6 µM (inactive) and the GI50 (TK-10) was > 100 µM (inactive). The GI50 (U-251) was > 100 µM (inactive), the GI50 (UACC-257) was 42.8 µM (inactive) and the GI50 (UACC-62) was > 100 µM (inactive). For the same molecule, the GI50 (UO-31) was > 100 µM (inactive).
